Experimental data from the supplement of paper PMC4862054.

Key:
Details in all cases: incubation time: 72 h
[1] = tested on: BT-474; experiment: normalised response (% of control), CellTox Green; higher = less cell death (100 = DMSO, 0 = benzethonium chloride kill control)
Method in brief: (§1)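 The table gives the normalised signal for a single concentration in each entry. Breast cancer cell lines were seeded (20 µl suspension) into 384-well plates holding compound at 5 concentrations in 10-fold steps over a compound-specific 10,000-fold range and incubated 72 h, then read for CellTox Green fluorescence (485/520 nm) and CellTiter-Glo luminescence. Normalisation on each plate used 0.1 % DMSO (100) and a positive kill control (0).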

[2] = tested on: BT-549; experiment: as above
Method in brief: as §1

[3] = tested on: CAL-120; experiment: as above
Method in brief: as §1

[4] = tested on: CAL-148; experiment: as above
Method in brief: as §1

[5] = tested on: CAL-51; experiment: as above
Method in brief: as §1

[6] = tested on: CAL-85-1; experiment: as above
Method in brief: as §1

[7] = tested on: DU-4475; experiment: as above
Method in brief: as §1

[8] = tested on: HCC1143; experiment: as above
Method in brief: as §1

[9] = tested on: HCC1599; experiment: as above
Method in brief: as §1

[10] = tested on: HDQ-P1; experiment: as above
Method in brief: as §1

[11] = tested on: Hs578T; experiment: as above
Method in brief: as §1

[12] = tested on: MCF-10A; experiment: as above
Method in brief: as §1

[13] = tested on: MDA-MB-231; experiment: as above
Method in brief: as §1

[14] = tested on: MDA-MB-436; experiment: as above
Method in brief: as §1

[15] = tested on: MDA-MB-453; experiment: as above
Method in brief: as §1

[16] = tested on: MDA-MB-468; experiment: as above
Method in brief: as §1

[17] = tested on: MFM-223; experiment: as above
Method in brief: as §1

[18] = tested on: BT-474; experiment: normalised response (% of control), CellTiter-Glo; higher = more viable cells (100 = DMSO, 0 = benzethonium chloride kill control)
Protocol: (§2)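 DSRT, 72 h incubation, CellTox Green / CellTiter-Glo readout. Signal is normalised to DMSO and benzethonium chloride controls. Value is the normalised response at dose 3.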

[19] = tested on: BT-549; experiment: as above
Protocol: as §2

[20] = tested on: CAL-120; experiment: as above
Protocol: as §2

[21] = tested on: CAL-148; experiment: as above
Protocol: as §2

[22] = tested on: CAL-51; experiment: as above
Protocol: as §2

[23] = tested on: CAL-85-1; experiment: as above
Protocol: as §2

[24] = tested on: DU-4475; experiment: as above
Protocol: as §2

[25] = tested on: HCC1143; experiment: as above
Protocol: as §2

[26] = tested on: HCC1599; experiment: as above
Protocol: as §2

[27] = tested on: HCC1937; experiment: as above
Protocol: as §2

[28] = tested on: HDQ-P1; experiment: as above
Protocol: as §2

[29] = tested on: Hs578T; experiment: as above
Protocol: as §2

[30] = tested on: MCF-10A; experiment: as above
Protocol: as §2

[31] = tested on: MDA-MB-231; experiment: as above
Protocol: as §2

[32] = tested on: MDA-MB-436; experiment: as above
Protocol: as §2

[33] = tested on: MDA-MB-453; experiment: as above
Protocol: as §2

[34] = tested on: MDA-MB-468; experiment: as above
Protocol: as §2

[35] = tested on: MFM-223; experiment: as above
Protocol: as §2

[36] = tested on: SK-BR-3; experiment: as above
Protocol: as §2

[37] = tested on: HCC1937; experiment: normalised response (% of control), CellTox Green; higher = less cell death (100 = DMSO, 0 = benzethonium chloride kill control)
Method in brief: as §1

| SMILES | normalised response [1] | normalised response [2] | normalised response [3] | normalised response [4] | normalised response [5] | normalised response [6] | normalised response [7] | normalised response [8] | normalised response [9] | normalised response [10] | normalised response [11] | normalised response [12] | normalised response [13] | normalised response [14] | normalised response [15] | normalised response [16] | normalised response [17] | normalised response [18] | normalised response [19] | normalised response [20] | normalised response [21] | normalised response [22] | normalised response [23] | normalised response [24] | normalised response [25] | normalised response [26] | normalised response [27] | normalised response [28] | normalised response [29] | normalised response [30] | normalised response [31] | normalised response [32] | normalised response [33] | normalised response [34] | normalised response [35] | normalised response [36] | normalised response [37] |
| --- | --- | --- | --- | --- | --- | --- | --- | --- | --- | --- | --- | --- | --- | --- | --- | --- | --- | --- | --- | --- | --- | --- | --- | --- | --- | --- | --- | --- | --- | --- | --- | --- | --- | --- | --- | --- | --- |
| Cc1sc2c(c1C)C(c1ccc(Cl)cc1)=N[C@@H](CC(=O)OC(C)(C)C)c1nnc(C)n1-2 [(+)JQ1] (100 nM) | 79% | 95.7% | 82.9% | 98.3% | 101% | 83.9% | 101% | 111% | 105% | 96.3% | 104% | 111% | 96.2% | 68.7% | 108% | 131% | 103% | 86.2% | 76% | 97.9% | 117% | 106% | 88.8% | 93.5% | 99.5% | 97.3% | 85% | 89.5% | 73.4% | 84.6% | 94.8% | 102% | 94.6% | 89.3% | 95% | 92.8% |  |
| Oc1ncnc2[nH]ncc12 [Allopurinol] (100 nM) | 98.1% | 94.6% | 103% | 86.5% | 98.8% | 109% | 101% | 113% | 104% | 103% | 103% | 89.3% | 112% | 102% | 102% | 92.2% | 91.8% | 101% | 91.4% | 103% | 104% | 86.8% | 104% | 106% | 106% | 111% | 101% | 101% | 105% | 104% | 105% | 99.5% | 110% | 107% | 109% | 105% |  |
| CC1=C2C[C@H]3[C@@H](CC=C4C[C@@H](O)CC[C@@]43C)[C@@H]2CC[C@]12O[C@@H]1C[C@H](C)CN[C@H]1[C@H]2C [Cyclopamine] (100 nM) | 101% | 102% | 99.6% | 104% | 85.7% | 94.5% | 102% | 115% | 104% | 68.2% | 95.4% | 94.2% | 102% | 86% | 97.4% | 88.8% | 107% | 101% | 95% | 104% | 114% | 99.3% | 106% | 109% | 104% | 100% | 97.2% | 99.9% | 105% | 106% | 109% | 99.7% | 122% | 108% | 109% | 112% |  |
| CC(=O)N(O)CCCCCNC(=O)CCC(=O)N(O)CCCCCNC(=O)CCC(=O)N(O)CCCCCN [Deferoxamine] (100 nM) | 94.5% | 97.8% | 103% | 92.4% | 104% | 104% | 98.1% | 102% | 92.5% | 96.1% | 94.9% | 90.1% | 78.7% | 95.5% | 102% | 114% | 102% | 95% | 100% | 99.2% | 88.7% | 96.2% | 95% | 93.9% | 99.1% | 102% | 89.7% | 101% | 101% | 96.8% | 93.2% | 102% | 84.4% | 95.8% | 93.5% | 88.2% |  |
| C[C@]12CC[C@@H]3c4ccc(OC(=O)N(CCCl)CCCl)cc4CC[C@H]3[C@@H]1CC[C@@H]2O [Estramustine] (100 nM) | 95.8% | 103% | 100% | 102% | 81% | 95.6% | 96.8% | 84.8% | 91.3% | 89.7% |  | 83.8% |  | 83.2% | 103% | 97.9% | 99.3% | 98.1% | 104% | 101% | 76.8% | 86.7% | 94.6% | 93.3% | 100% | 103% | 95.2% | 102% | 93% | 88.2% | 95.4% | 98.4% | 83.1% | 95.2% | 91.4% | 85.3% | 70.5% |
| CC1(C)CNc2cc(NC(=O)c3cccnc3NCc3ccncc3)ccc21 [Motesanib] (100 nM) | 99% | 106% | 95.2% | 94.2% | 107% | 110% | 97.9% | 100% | 103% | 111% |  | 100% | 101% | 91.1% | 105% | 93% | 92.8% | 101% | 99.7% | 99.9% | 86.2% | 107% | 89.5% | 102% | 95.4% | 114% | 96.8% | 99.5% | 96.3% | 92.5% | 101% | 96.9% | 99.8% | 91.8% | 93.8% | 92.1% | 99.2% |
| CC(=O)c1c(C)c2cnc(Nc3ccc(N4CCNCC4)cn3)nc2n(C2CCCC2)c1=O [Palbociclib] (100 nM) | 99.6% | 103% | 98.7% | 103% | 110% | 102% | 98.8% | 55.5% | 95.2% | 101% | 104% |  | 103% | 77% | 107% |  | 101% | 85.7% | 97.9% | 86.4% | 85.7% | 72.8% | 97.3% | 98% | 96.5% | 94.4% | 95.7% | 103% | 103% | 85.8% | 95.9% | 96.4% | 105% | 85% | 79.7% | 86.3% | 82% |
| CC[C@@H]1C(=O)OC[C@@H]1Cc1cncn1C [Pilocarpine] (400 nM) | 98.4% | 93.4% | 98.8% | 97.1% | 91.1% | 110% | 95.8% | 104% | 99.5% | 91% |  | 98.6% | 106% | 70% | 93.6% | 73.4% | 99.6% | 94.5% | 102% | 96.6% | 86% | 63.4% | 97% | 97.7% | 98.7% | 85.9% | 96.7% | 98.3% | 97.8% | 101% | 94.1% | 88.3% | 96.1% | 95.3% | 101% | 89.7% | 70.4% |
| COc1cc(F)c(F)c(Nc2ccc(I)cc2F)c1NS(=O)(=O)C1(C[C@H](O)CO)CC1 [Refametinib] (100 nM) | 97.4% | 102% | 92.4% | 58.6% | 79.7% | 86.7% | 84% | 95.8% | 93.7% | 81.3% | 103% | 93.4% |  |  | 101% |  | 97.7% | 81% | 105% | 87.7% | 87.2% | 88.3% | 89.7% | 35.1% | 89.1% | 99.6% | 88% | 68.6% | 87.4% | 37.9% | 83.6% | 91.6% | 97.6% | 82.2% | 88.9% | 90.6% | 92.5% |
